Experimental data from patent US20040248765A1, “Tumour targeting prodrugs activated by metallo matrixproteinases” (priority 2001, published 2004).
Where a SMILES comes first, the peptide text is derived from it. [ ]: non-standard residue; d: D form. The star is where a group is joined. NH(CH2)3NH(1-anthraquinonyl) = O=C1c2ccccc2C(=O)c2c(NCCCN*)cccc21

Tests used:
calf thymus DNA [1] = assay: Fluorescence quenching, Ethidium Bromide displacement from calf thymus DNA; assay type: binding
MAC15A = assay: In vitro cytotoxicity, MAC15A, 1 hour exposure; assay type: cell-based; conditions: for % cells remaining: 1 × 10^4 cells/ml
[2] = test system: MAC15A adenocarcinoma of the colon; assay: In vitro cytotoxicity against MAC15A adenocarcinoma of the colon, 96 hours exposure; assay type: cell-based; conditions: Mus musculus, 96 h
human recombinant MMP-9 = biological target: T1, human recombinant MMP-9 (Homo sapiens, UniProt P14780); assay: In vitro enzyme incubation with recombinant MMP-9 (HPLC, MS/MS); assay type: biochemical; conditions: HPLC and MS/MS
T1 construct: purchased Calbiochem (Calbiochem-Novabiochem Ltd, Nottingham, UK)
T1 sequence (P14780 94-707): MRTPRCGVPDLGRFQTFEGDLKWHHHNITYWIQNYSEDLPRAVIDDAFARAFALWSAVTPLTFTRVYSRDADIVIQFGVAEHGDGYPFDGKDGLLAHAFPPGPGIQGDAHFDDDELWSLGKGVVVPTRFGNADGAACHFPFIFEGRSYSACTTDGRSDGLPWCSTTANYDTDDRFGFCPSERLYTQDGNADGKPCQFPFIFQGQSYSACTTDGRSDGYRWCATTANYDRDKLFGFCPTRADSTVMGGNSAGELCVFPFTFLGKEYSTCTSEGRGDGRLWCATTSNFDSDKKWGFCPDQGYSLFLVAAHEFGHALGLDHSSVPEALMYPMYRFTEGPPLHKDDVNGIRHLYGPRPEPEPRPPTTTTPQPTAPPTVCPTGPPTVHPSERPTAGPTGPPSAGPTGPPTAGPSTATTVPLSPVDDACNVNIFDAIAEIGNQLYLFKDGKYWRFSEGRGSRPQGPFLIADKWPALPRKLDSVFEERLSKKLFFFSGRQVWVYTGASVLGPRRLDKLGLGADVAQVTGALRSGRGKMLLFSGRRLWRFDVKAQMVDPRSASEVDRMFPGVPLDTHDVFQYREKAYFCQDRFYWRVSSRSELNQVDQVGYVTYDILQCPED
Method: In vitro Enzyme Incubations
Compounds were incubated in vitro with purified recombinant enzyme (either MMP-9 or MMP-2) (Calbiochem, Nottingham, UK). Typically, compounds (drugs) were incubated at 5 μM concentrations using 10 μl of enzyme, 10μl of drug and 90 μl of buffer at 25° C. The buffer used consisted of 200 mM NaCl, 50 mM Tris, 5 mM CaCl2, 20 μM ZnSO4 and 0.05% Brij35 at pH 7.6.
At various time points 20 μl samples were taken and 60 μl of methanol added to precipitate proteins as described above and the metabolism of the compounds was analysed by HPLC (as above).

calf thymus DNA [3] = assay: Fluorescence quenching, Hoechst Dye 33258 displacement from calf thymus DNA; assay type: binding
topo I = biological target: T2, topo I (Homo sapiens, UniProt P11387); assay: Inhibition of topo I-mediated relaxation of pBR322 DNA; assay type: biochemical; conditions: tested between 1-100 μM
T2 sequence (P11387 1-765): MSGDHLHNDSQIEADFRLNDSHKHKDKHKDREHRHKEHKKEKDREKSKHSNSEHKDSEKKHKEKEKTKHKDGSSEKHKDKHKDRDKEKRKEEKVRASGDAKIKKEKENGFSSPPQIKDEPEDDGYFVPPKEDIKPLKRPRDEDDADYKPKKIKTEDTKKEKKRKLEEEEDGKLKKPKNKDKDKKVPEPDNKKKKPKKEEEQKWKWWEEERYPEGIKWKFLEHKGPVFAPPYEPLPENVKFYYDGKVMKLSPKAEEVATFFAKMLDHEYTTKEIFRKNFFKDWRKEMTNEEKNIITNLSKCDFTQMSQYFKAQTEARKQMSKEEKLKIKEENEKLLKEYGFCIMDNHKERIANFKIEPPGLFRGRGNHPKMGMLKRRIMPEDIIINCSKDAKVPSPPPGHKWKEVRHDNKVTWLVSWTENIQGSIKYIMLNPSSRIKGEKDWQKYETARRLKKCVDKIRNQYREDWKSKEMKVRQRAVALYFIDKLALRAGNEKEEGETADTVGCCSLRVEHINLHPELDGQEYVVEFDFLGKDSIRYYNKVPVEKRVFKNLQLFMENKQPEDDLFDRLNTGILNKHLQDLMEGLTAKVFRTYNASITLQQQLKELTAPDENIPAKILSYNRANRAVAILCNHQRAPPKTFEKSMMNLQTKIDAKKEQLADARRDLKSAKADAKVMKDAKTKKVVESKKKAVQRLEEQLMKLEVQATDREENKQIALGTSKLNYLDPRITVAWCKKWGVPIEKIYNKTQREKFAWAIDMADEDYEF
Method: Neither example (8) [NU:UB187] (heptapeptide) nor its hexa-, penta-, or tetra-peptide metabolites {examples (7) [NU:UB 205], (6) [NU:UB 204] and (5) [NU:UB 186] respectively} inhibited the topo I- mediated relaxation of pBR322 DNA at concentrations up to 100 μM. […] (the preferred MMP-2 cleavage product of example (8) [NU:UB187] The topo I activities of example (2) [NU:UB 31] and example (1b) [NU:UB 197] bad previously been determined [Table 1].

[4] = In vitro tumour incubations: metabolism by dilute HT1080 tumour homogenate (HPLC); assay type: in vitro ADME; conditions: dilute HT1080 tumour homogenate (1:500)
Method: Separation was achieved using gradient reversed phase HPLC On a Lichrospher (25×4 mm) column.
Mobile phase A consisted of 10% acetonitrile: 90% TFA (0.05%) and mobile phase B of 60% acetonitrile: 40% TFA (0.05%). Optimum detection was at the λmax of 248 nm using a flow rate of 1.2 ml/min. The gradient profile was from 60% A to 5% A over 25 min.
Sample preparation for HPLC was by simple protein precipitation. 3 vols. of methanol were added to 1 vol. of sample (typically 100 μl) which was centrifuged at 3000 g for 5 min. The supernatant was injected directly onto the HPLC column.
In Vitro Tumour Incubations
Solid tumour (HTT1080—excised from NCI-Nu mice under a Home Office Licence) was homogenised (1:4) in MMP buffer. Tumour homogenates were incubated at 25° C. and compounds (drugs) were added to the homogenate to give a final concentration of 10 μM or 100 μM. Samples were taken at timed intervals and prepared for HPLC analysis as described above.
Where metabolism was so rapid tumour homogenates required dilution (to 1:500) before analysis.

SMILES: CC(C)C[C@H](NC(=O)[C@H](C)NC(=O)[C@H](C)NC(=O)[C@@H](C)N)C(=O)NCC(=O)N[C@@H](CC(C)C)C(=O)N1CCC[C@H]1C(=O)NCCCNc1cccc2c1C(=O)c1ccccc1C2=O.O=C(O)C(F)(F)F [Example 8, 1-[3-(D-Alanyl-L-alanyl-L-alanyl-L-leucyl-glycyl-L-leucyl-L-prolylamino)-propylamino]anthraquinone trifluoroacetate] (H-[dA]AALGLP-{NH(CH2)3NH(1-anthraquinonyl)})
- QE50 (Ethidium Bromide displacement) (calf thymus DNA [1]; calf thymus DNA): 17 µM
- intercalation into DNA (calf thymus DNA [1]; refers to Table 3): not to intercalate into DNA
- melting point: 166 °C
- % cells remaining (MAC15A; 1 μM): 100%
- % cells remaining (MAC15A; 10 μM): 100%
- % cells remaining (MAC15A; 100 μM): 95%
- IC50 (MAC15A; Mus musculus): > 100 µM
- IC50 [2]: 36 µM
- cleavage product with MMP-9 (human recombinant MMP-9): cleavage to anthraquinonyl, spacer-linked tripeptide Example 4
- QH50 (Hoechst Dye 33258 displacement) (calf thymus DNA [3]; calf thymus DNA): 4 µM
- groove binding to DNA (calf thymus DNA [3]; in comparison to example (2) NU:UB 31): weak groove binding agent
- LEVEL OF INHIBITION of topo I-mediated relaxation pBR322 DNA (topo I): No inhibition of relaxation between 1-100 μM
- major products / metabolite [4]: the cleavage product Example 4 and the anthraquinone Example 1a
- rate of metabolism [4]: 1.75 μmol/min/g tissue
